{
  "source": "paper PMC7709710",
  "about": "(Investigational new drugs, 2015)",
  "key": {"[1]": {"system": "patients with advanced solid tumors", "details": "human, in vivo, 4 weeks"}, "Hsp27 mRNA": {"system": "Hsp27 mRNA", "assay": "Hsp27 mRNA by RT-PCR in paired tumor biopsies", "assay_type": "in vivo, human", "details": "one patient, dose level 3 (80 mg/m^2/dose), pre-dose vs day 17 of cycle 1"}, "human xenograft models": {"system": "human xenograft models", "details": "several human xenograft models; cited from earlier work"}, "Hsp70 protein": {"system": "Hsp70 protein", "assay": "Hsp70 protein in PBMCs by Western blot", "assay_type": "in vivo, human"}, "Hsp90 client proteins": {"system": "Hsp90 client proteins", "assay": "Reverse phase protein array", "assay_type": "in vivo, human"}, "[2]": {"assay": "Plasma and urine pharmacokinetics in patients", "assay_type": "in vivo, human"}, "Hsp70 mRNA": {"system": "Hsp70 mRNA", "assay": "Hsp70 mRNA by RT-PCR in paired tumor biopsies", "assay_type": "in vivo, human", "details": "one patient, dose level 3 (80 mg/m^2/dose), pre-dose vs day 17 of cycle 1"}, "Hsp90": {"biological_target": "Hsp90", "details": "cited from earlier work"}, "patients": {"system": "patients", "details": "cited from earlier work"}, "advanced solid tumors": {"system": "advanced solid tumors", "assay": "Tumor response by RECIST 1.1", "assay_type": "in vivo, human"}, "[3]": {"details": "pre- to post-treatment, RP2D, subgroup 1 (patients 21, 22, 31)"}, "[4]": {"details": "pre- to post-treatment, RP2D, subgroup 2 (patients 28, 24, 30, 27, 29)"}, "[5]": {"details": "subgroup 1 only (patients 21, 22, 31)"}},
  "note": "pKd: −log10 of the molar value.",
  "data": [
    {"smiles": "CC(C)c1cc(C(=O)N2Cc3ccc(CN4CCN(C)CC4)cc3C2)c(O)cc1O", "note": "[onalespib]", "values": [
      {"measurement": "recommended phase 2 dose (RP2D)", "setting": "[1]", "result": 160, "unit": "mg/m^2/dose"},
      {"measurement": "induction of Hsp27 mRNA following treatment", "setting": "Hsp27 mRNA", "result": "> 2", "unit": "fold"},
      {"measurement": "tumor growth inhibition, QDx2/week versus other schedules", "setting": "human xenograft models", "result": "consistently greater tumor growth inhibition"},
      {"measurement": "Hsp70 protein expression in PBMCs at dose level 1", "setting": "Hsp70 protein; Patient #1, dose level 1 (20 mg/m^2)", "result": "no increase in Hsp70 expression"},
      {"measurement": "Hsp70 protein expression in PBMC samples", "setting": "Hsp70 protein; patients at dose levels 2 through 5 (RP2D)", "result": "increased Hsp70 protein expression"},
      {"measurement": "within-patient expression changes of 210 client proteins", "setting": "Hsp90 client proteins; 9 patients, RP2D, baseline vs cycle 1 day 16 or 17", "result": "no proteins with statistically significant changes"},
      {"measurement": "CHK2, mean log2-normalized expression change: group 1", "setting": "Hsp90 client proteins; [3]", "result": 1.0062},
      {"measurement": "MAP2K2, mean log2-normalized expression change: group 1", "setting": "Hsp90 client proteins; [3]", "result": "−0.2937"},
      {"measurement": "PRAS, mean log2-normalized expression change: group 1", "setting": "Hsp90 client proteins; [3]", "result": 0.3038},
      {"measurement": "RAB11A/B, mean log2-normalized expression change: group 1", "setting": "Hsp90 client proteins; [3]", "result": "−0.5853"},
      {"measurement": "Raf-1, mean log2-normalized expression change: group 1", "setting": "Hsp90 client proteins; [3]", "result": "−0.2670"},
      {"measurement": "STAT3, mean log2-normalized expression change: group 1", "setting": "Hsp90 client proteins; [3]", "result": "−0.6103"},
      {"measurement": "STAT5A, mean log2-normalized expression change: group 1", "setting": "Hsp90 client proteins; [3]", "result": 0.5016},
      {"measurement": "c-Src, mean log2-normalized expression change: group 1", "setting": "Hsp90 client proteins; [3]", "result": "−0.5997"},
      {"measurement": "eEF-2 kinase, mean log2-normalized expression change: group 1", "setting": "Hsp90 client proteins; [3]", "result": 0.9679},
      {"measurement": "serpin E1, mean log2-normalized expression change: group 1", "setting": "Hsp90 client proteins; [3]", "result": "−3.0031"},
      {"measurement": "CHK2, mean log2-normalized expression change: group 2", "setting": "Hsp90 client proteins; [4]", "result": 0.1233},
      {"measurement": "MAP2K2, mean log2-normalized expression change: group 2", "setting": "Hsp90 client proteins; [4]", "result": 0.1770},
      {"measurement": "PRAS, mean log2-normalized expression change: group 2", "setting": "Hsp90 client proteins; [4]", "result": "−0.1004"},
      {"measurement": "RAB11A/B, mean log2-normalized expression change: group 2", "setting": "Hsp90 client proteins; [4]", "result": 0.0826},
      {"measurement": "Raf-1, mean log2-normalized expression change: group 2", "setting": "Hsp90 client proteins; [4]", "result": "−0.0855"},
      {"measurement": "STAT3, mean log2-normalized expression change: group 2", "setting": "Hsp90 client proteins; [4]", "result": 0.0176},
      {"measurement": "STAT5A, mean log2-normalized expression change: group 2", "setting": "Hsp90 client proteins; [4]", "result": "−0.0725"},
      {"measurement": "c-Src, mean log2-normalized expression change: group 2", "setting": "Hsp90 client proteins; [4]", "result": "−0.0664"},
      {"measurement": "eEF-2 kinase, mean log2-normalized expression change: group 2", "setting": "Hsp90 client proteins; [4]", "result": "−0.0370"},
      {"measurement": "serpin E1, mean log2-normalized expression change: group 2", "setting": "Hsp90 client proteins; [4]", "result": 0.2094},
      {"measurement": "decrease in CHK1 phosphorylation after treatment", "setting": "Hsp90 client proteins; [5]", "result": "> 2", "unit": "fold"},
      {"measurement": "decrease in CHK2 phosphorylation after treatment", "setting": "Hsp90 client proteins; [5]", "result": "> 2", "unit": "fold"},
      {"measurement": "urinary drug excretion", "setting": "[2]; 24 h after drug administration", "result": "< 10", "unit": "%"},
      {"measurement": "plasma accumulation of drug with repeated dosing", "setting": "[2]; day 1 vs day 15 of cycle 1", "result": "no significant plasma accumulation"},
      {"measurement": "plasma exposure to drug (AUC) versus dose", "setting": "[2]; doses 20–210 mg/m^2", "result": "proportional to dose"},
      {"measurement": "half-life", "setting": "[2]; human, plasma, intravenous", "result": "~8", "unit": "h"},
      {"measurement": "induction of Hsp70 mRNA following treatment", "setting": "Hsp70 mRNA", "result": "> 1.5", "unit": "fold"},
      {"measurement": "pKd", "setting": "Hsp90", "result": 9.15},
      {"measurement": "patients with visual disturbances", "setting": "patients; 120 mg/m^2/dose twice weekly", "result": "10 of 13"},
      {"measurement": "maximum-tolerated-dose", "setting": "patients; twice weekly dosing, days 1, 4, 8, 11, 15, 18 in 28 day cycles", "result": 120, "unit": "mg/m^2/dose"},
      {"measurement": "tumor responses", "setting": "advanced solid tumors; 31 patients treated", "result": "No responses were observed"},
      {"measurement": "longest time on study (one patient with hepatocellular carcinoma)", "setting": "advanced solid tumors; in vivo", "result": 6, "unit": "cycles"}
    ]}
  ]
}
